Measurements published in patent US20210238169A1, “PROCESS FOR PREPARING A COMPOUND OF FORMULA (XIII)” (PULMOCIDE LIMITED, priority 2014, published 2021).

How the values were obtained:
BEAS2B cells = test: Cell viability: resazurin assay; type: cell-based, human; conditions: concentrations up to, at least, 10 μM
Experimental: BEAS2B cells were seeded in 384-well plates (100 μL; 3000/well/; BD Falcon, Catalogue No 353962) in RPMI-LHC8 (RPMI-1640 and LHC8 media combined in equal proportions) one day before experimentation. For cell-free control wells, RPMI-LHC8 (100 μL) was added. Test compounds (0.5 μL of a DMSO solution) were added to give a final DMSO concentration of 0.5% using an Integra VIAFLO 96 (Integra, Zizers, Switzerland). BEAS2B cells were incubated with each test compound for 1 day (37° C./5% CO2 in RPMI-LHC8). After addition of resazurin stock solution (5 μL, 0.04%) the plates were incubated for a further 4 hr (37° C./5% CO2). The fluorescence of each well at 545 nm (excitation) and 590 nm (emission) was determined using a multi-scanner (Clariostar: BMG Labtech). The percentage loss of cell viability was calculated for each well relative to vehicle (0.5% DMSO) treatment. Where appropriate, a CC50 value was calculated from the concentration-response curve generated from the concentration-response curve for each test compound.

[1] = tested on: Aspergillus fumigatus (ATCC 13073); test: Extended prophylactic dosing: CFU in lung and GM in BALF and serum; type: in vivo, mice
Experimental: Aspergillus fumigatus (ATCC 13073 [strain: NIH 5233], American Type Culture Collection, Manassas, Va., USA) was grown on Malt agar (Nissui Pharmaceutical, Tokyo, Japan) plates for 6-7 days at RT (24±1° C.). Spores were aseptically dislodged from the agar plates and suspended in sterile distilled water with 0.05% Tween 80 and 0.1% agar. On the day of infection, spore counts were assessed by haemocytometer and the inoculum was adjusted to obtain a concentration of 1.67×10^8 spores mL^−1 of physiological saline.
On day 0, animals were infected with the spore suspension (35 μL intra-nasally).
Test compounds were administered intra-nasally (35 μL of a suspension of 0.08-2.00 mg/mL in physiological saline) once daily, 30 min before infection on day 0 and then on days 1, 2 and 3 (representing prophylactic treatment) or on days 1, 2 and 3 only (representing therapeutic treatment). For extended prophylactic treatment, test compounds (35 μL of a suspension of 0.0032 or 0.016 mg/mL in physiological saline) were administered intra-nasally once daily for seven days; then 30 min before infection on day 0, and thereafter, either on days 1, 2 and 3 after infection, or on day 0 only. The effects of these treatment paradigms were compared with those obtained when treatment was restricted to one day and 30 min before inoculation and then on days 1, 2 and 3 post infection; or reduced still further to one day and 30 min before infection only.
Six hours after the last dose, animals were anesthetised, the trachea was cannulated and BALF was collected. The total number of alveolar cells was determined using a haemocytometer, and the numbers of alveolar macrophages and neutrophils were determined by FACS analysis (EPICS® ALTRA II, Beckman Coulter, Inc., Fullerton, Calif., USA) using anti-mouse MOMA2-FITC (macrophage) or anti-mouse 7/4 (neutrophil), respectively, as previously reported (Kimura et al., 2013). The levels of IFN-γ and IL-17 in BALF, and IL-6 and TNFα in serum were determined using Quantikine® mouse IFN-γ, IL-17, IL-6 or TNF-α ELISA kit (R&D systems, Inc., Minneapolis, Minn., USA) respectively. MDA, an oxidative stress marker, was assayed using OxiSelect® TBARS Assay Kits (MDA Quantitation; Cell Biolabs Inc, San Diego, Calif., USA). Aspergillus GM in serum was determination using Platelia GM-EIA kits (Bio-Rad Laboratories, Redmond, Wash., USA). Cut-off index was calculated by the formula: Cut-off index=OD in sample/OD in cut-off control provided in kit. For tissue fungal load assays, 100 mg of lung tissue was removed aseptically and homogenized in 0.2 mL of 0.1% agar in sterile distilled water. Serially diluted lung homogenates were plated on Malt agar plates (50 μL/plate), and incubated at 24±1° C. for 72 to 96 h. The colonies of A. fumigatus on each plate was counted and the fungal titre presented as CFU per gram of lung tissue.

[2] = days dosed −1, 0, 16 μg/mL intra-nasally
[3] = days dosed −1 to +3, 3.2 μg/mL intra-nasally
[4] = days dosed −1 to +3, 16 μg/mL intra-nasally
[5] = days dosed −7 to 0, 16 μg/mL intra-nasally
[6] = days dosed −7 to +3, 3.2 μg/mL intra-nasally
[7] = days dosed −7 to +3, 16 μg/mL intra-nasally

Cc1cc(N2CCN(c3ccc(C(=O)Nc4ccc(F)cc4)cc3)CC2)ccc1OC[C@@H]1CO[C@@](Cn2cncn2)(c2ccc(F)cc2F)C1 [Compound (I), 4-(4-(4-(((3R,5R)-5-((1H-1,2,4-triazol-1-yl)methyl)-5-(2,4-difluorophenyl)tetrahydrofuran-3-yl)methoxy)-3-methylphenyl)piperazin-1-yl)-N-(4-fluorophenyl)benzamide]
effect on the viability of BEAS2B bronchial epithelial cells (BEAS2B cells): no or little effect | CFU in lung [1, 2]: 13.1 ± 2.6 /mg of lung | CFU in lung, % inhibition [1, 2]: 62% | GM in BALF [1, 2]: 4.5 ± 0.50 COI | GM in BALF, % inhibition [1, 2]: 12% | GM in serum [1, 2]: 4.0 ± 0.88 COI | GM in serum, % inhibition [1, 2]: 7% | CFU in lung [1, 3]: 9.5 ± 3.3 /mg of lung | CFU in lung, % inhibition [1, 3]: 73% | GM in BALF [1, 3]: 2.8 ± 0.71 COI | GM in BALF, % inhibition [1, 3]: 45% | GM in serum [1, 3]: 2.2 ± 0.69 COI | GM in serum, % inhibition [1, 3]: 49% | CFU in lung [1, 4]: 6.1 ± 2.8 /mg of lung | CFU in lung, % inhibition [1, 4]: 82% | GM in BALF [1, 4]: 2.2 ± 0.61 COI | GM in BALF, % inhibition [1, 4]: 57% | GM in serum [1, 4]: 1.6 ± 0.41 COI | GM in serum, % inhibition [1, 4]: 63% | CFU in lung [1, 5]: 6.7 ± 1.7 /mg of lung | CFU in lung, % inhibition [1, 5]: 81% | GM in BALF [1, 5]: 2.3 ± 0.52 COI | GM in BALF, % inhibition [1, 5]: 55% | GM in serum [1, 5]: 1.7 ± 0.59 COI | GM in serum, % inhibition [1, 5]: 60% | CFU in lung [1, 6]: 8.3 ± 2.0 /mg of lung | CFU in lung, % inhibition [1, 6]: 76% | GM in BALF [1, 6]: 2.6 ± 0.36 COI | GM in BALF, % inhibition [1, 6]: 49% | GM in serum [1, 6]: 1.8 ± 0.43 COI | GM in serum, % inhibition [1, 6]: 58% | CFU in lung [1, 7]: 5.0 ± 2.3 /mg of lung | CFU in lung, % inhibition [1, 7]: 86% | GM in BALF [1, 7]: 1.7 ± 0.39 COI | GM in BALF, % inhibition [1, 7]: 67% | GM in serum [1, 7]: 1.4 ± 0.20 COI | GM in serum, % inhibition [1, 7]: 67%
